{
  "source": "patent US20040014779A1",
  "about": "“Methods and compositions related to IRM compounds and toll-like recptor pathways” (3M Innovative Properties Company, priority 2001, published 2004)",
  "key": {"TLR6 [1]": {"biological_target": "T1, TLR6 (Homo sapiens, UniProt Q9Y2C9, P680H)", "T1 construct": "expressed in transfected cells; host or cells: THP-1 (pIRES vector)", "T1 sequence (Q9Y2C9 32-796 P680H)": "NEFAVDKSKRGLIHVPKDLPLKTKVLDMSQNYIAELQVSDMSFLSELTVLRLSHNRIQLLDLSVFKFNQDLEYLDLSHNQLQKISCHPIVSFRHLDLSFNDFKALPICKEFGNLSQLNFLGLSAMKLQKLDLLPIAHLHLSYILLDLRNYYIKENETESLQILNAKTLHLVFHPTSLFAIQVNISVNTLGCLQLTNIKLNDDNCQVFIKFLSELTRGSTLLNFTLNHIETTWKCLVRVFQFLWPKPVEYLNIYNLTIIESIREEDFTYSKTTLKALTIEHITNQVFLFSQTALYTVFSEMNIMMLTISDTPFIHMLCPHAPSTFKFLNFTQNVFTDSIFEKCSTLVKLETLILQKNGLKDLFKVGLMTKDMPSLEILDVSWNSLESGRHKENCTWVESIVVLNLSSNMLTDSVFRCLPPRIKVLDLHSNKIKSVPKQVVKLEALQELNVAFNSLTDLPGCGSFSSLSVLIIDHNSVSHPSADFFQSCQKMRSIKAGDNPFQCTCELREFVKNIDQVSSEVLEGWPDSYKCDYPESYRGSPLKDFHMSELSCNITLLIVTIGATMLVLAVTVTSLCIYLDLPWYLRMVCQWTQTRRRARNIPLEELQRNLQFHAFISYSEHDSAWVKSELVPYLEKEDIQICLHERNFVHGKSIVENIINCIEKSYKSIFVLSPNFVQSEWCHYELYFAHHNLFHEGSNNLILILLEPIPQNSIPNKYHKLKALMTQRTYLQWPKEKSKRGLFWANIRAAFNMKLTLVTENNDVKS", "T1 sequence (O60603 19-784 partner limits assumed)": "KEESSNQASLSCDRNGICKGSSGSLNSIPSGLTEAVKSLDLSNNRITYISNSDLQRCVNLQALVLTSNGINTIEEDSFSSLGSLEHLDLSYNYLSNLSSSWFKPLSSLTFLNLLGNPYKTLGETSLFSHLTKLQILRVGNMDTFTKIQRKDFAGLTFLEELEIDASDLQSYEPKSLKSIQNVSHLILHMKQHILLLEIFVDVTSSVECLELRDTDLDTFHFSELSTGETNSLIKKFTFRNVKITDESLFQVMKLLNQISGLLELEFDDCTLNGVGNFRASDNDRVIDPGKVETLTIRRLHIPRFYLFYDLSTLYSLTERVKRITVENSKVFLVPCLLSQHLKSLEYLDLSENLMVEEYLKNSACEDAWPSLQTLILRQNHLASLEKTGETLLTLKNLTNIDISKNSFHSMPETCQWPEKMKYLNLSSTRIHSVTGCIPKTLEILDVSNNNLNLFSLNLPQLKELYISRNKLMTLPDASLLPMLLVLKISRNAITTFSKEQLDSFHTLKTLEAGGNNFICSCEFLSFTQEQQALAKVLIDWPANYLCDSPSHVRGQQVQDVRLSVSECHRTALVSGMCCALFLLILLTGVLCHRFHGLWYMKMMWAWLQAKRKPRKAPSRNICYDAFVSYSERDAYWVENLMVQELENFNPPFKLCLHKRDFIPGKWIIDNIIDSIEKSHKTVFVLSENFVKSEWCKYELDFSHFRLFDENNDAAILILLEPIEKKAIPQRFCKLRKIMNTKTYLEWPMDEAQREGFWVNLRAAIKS", "experiment": "TNF-α production by THP-1 cells transfected with TLR6DN vs vector control", "assay_type": "cell-based", "excerpt": "The human TLR6 dominant negative construct was generated from human PBMC cDNA using the same strategy as the murine TLR6 dominant negative. The proline to histidine mutation for human TLR6 was introduced at amino acid 680 along with an Apa LI restriction enzyme site (5′ sense: SEQ ID NO 5; 5′ antisense: SEQ ID NO 6; 3′ sense: SEQ ID NO 7; 3′ antisense: SEQ ID NO 8).\n(§1) The amplified 5′ and 3′ sections of each human dominant negative TLR was inserted into pCR-Blunt II-TOPO for sequence verification. The 5′ and 3′ sections were joined together when subcloned into pIRES (Clontech, Palo Alto, Calif.) for expression in mammalian cells.\n(§2) THP-1 cells (maintained at cell number less than 1×10^6 cells/ml) were co-transfected with the plamid vector containing either the TLR6DN or TLR7DN construct and with a murine H2K^k plasmid (Miltenyi Biotec Inc., Auburn, Calif.) in a 4:1 ratio of TLR plasmid to H2K^k plasmid. Transfection of THP-1 cells was carried out using the transfection reagent FuGENE 6 (Roche Diagnostics Corp., Indianapolis, Ind.) according to the manufacturer's specifications. […]\n(§3) TNF-α levels were measured with a commercial Human TNF-α ELISA kit (Biosource International, Inc., Camarillo, Calif.) according to the manufacturer's specifications. […]"}, "TLR7": {"tested_on": "TLR7", "experiment": "TNF-α production by THP-1 cells transfected with TLR7DN vs vector control", "assay_type": "cell-based, human", "excerpt": "The human TLR7 dominant negative construct was generated in a manner similar to that used to generate the human TLR6 dominant negative construct. The proline to histidine mutation for human was introduced at amino acid 932 along with a Bam HI restriction enzyme site (5′ sense: SEQ ID NO 9; 5′ antisense: SEQ ID NO 10; 3′ sense: SEQ ID NO 11; 3′ antisense: SEQ ID NO 12).\nas §1, §2, §3"}, "TLR6 [2]": {"biological_target": "T2, TLR6 (Mus musculus, UniProt Q9EPW9, P680H)", "T2 construct": "expressed in transfected cells; host or cells: RAW 264.7 (pIRES vector)", "T2 sequence (Q9EPW9 28-795 P680H)": "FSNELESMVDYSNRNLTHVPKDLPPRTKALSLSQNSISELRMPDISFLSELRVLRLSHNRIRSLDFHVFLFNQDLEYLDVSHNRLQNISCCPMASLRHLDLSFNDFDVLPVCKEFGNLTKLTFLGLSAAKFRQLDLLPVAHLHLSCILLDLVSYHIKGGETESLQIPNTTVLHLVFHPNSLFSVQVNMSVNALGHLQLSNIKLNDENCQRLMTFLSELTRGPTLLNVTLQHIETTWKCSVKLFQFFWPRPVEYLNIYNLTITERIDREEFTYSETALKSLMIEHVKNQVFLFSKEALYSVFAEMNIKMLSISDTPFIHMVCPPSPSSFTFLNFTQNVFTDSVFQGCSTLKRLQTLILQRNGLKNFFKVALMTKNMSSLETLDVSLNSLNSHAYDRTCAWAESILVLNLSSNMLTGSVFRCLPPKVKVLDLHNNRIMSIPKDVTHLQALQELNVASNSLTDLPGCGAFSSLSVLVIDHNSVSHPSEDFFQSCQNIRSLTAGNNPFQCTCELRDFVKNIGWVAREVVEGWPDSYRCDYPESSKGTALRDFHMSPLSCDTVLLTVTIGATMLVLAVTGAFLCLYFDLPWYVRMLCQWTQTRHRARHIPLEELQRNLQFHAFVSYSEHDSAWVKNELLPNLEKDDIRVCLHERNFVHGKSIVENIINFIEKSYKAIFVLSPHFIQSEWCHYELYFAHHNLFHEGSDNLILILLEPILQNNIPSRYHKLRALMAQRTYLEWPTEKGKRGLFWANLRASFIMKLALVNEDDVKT", "T2 sequence (Q9QUN7 25-784 partner)": "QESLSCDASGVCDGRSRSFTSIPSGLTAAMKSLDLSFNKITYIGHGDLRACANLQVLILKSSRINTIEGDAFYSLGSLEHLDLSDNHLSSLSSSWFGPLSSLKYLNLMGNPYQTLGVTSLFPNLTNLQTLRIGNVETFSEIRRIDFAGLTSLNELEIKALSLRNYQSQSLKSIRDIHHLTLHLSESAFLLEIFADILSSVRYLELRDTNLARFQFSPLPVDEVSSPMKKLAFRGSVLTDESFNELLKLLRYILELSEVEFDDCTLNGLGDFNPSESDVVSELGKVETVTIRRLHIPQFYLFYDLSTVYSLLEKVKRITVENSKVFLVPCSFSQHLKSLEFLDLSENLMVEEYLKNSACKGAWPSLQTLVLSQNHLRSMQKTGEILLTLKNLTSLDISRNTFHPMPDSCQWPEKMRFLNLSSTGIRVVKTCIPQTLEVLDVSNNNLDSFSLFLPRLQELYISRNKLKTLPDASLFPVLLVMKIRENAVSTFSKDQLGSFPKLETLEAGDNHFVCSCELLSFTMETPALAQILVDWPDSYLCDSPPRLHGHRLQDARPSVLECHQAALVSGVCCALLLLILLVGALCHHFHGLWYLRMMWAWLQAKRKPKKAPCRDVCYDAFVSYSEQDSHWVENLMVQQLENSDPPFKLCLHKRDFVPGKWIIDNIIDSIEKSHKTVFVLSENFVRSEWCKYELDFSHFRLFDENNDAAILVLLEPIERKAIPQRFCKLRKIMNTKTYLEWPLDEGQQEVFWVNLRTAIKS", "experiment": "TNF-α production by RAW 264.7 cells transfected with TLR6DN", "assay_type": "cell-based", "excerpt": "A murine TLR6 dominant negative construct was generated by PCR mutation during amplification from RAW 264.7 cell cDNA. The 5′ and 3′ regions flanking a codon encoding proline 691 were amplified with primers (5′ sense: SEQ ID NO 1; 5′ antisense: SEQ ID NO 2; 3′sense: SEQ ID NO 3; 3′ antisense: SEQ ID NO 4) that changed the codon for proline 691 to a codon encoding histidine while introducing a unique Apa LI restriction enzyme site at the position of the mutation. The 5′ and 3′ sections of the TLR6 were amplified by Pfu Turbo DNA polymerase kit (Stratagene, La Jolla, Calif.). The PCR sections were inserted into pCR-Blunt II-TOPO for sequence verification. The two sections were joined together when subcloned into pIRES (Clontech, Palo Alto, Calif.) for expression in mammalian cells.\nRAW 264.7 cells were co-transfected with a truncated human CD4 for RAW 264.7 cells in a 4:1 ratio of TLR plasmid to CD4 plasmid. Transfection of RAW 264.7 cells was carried out using the transfection reagent DoTaP (Roche Diagnostics Corp., Indianapolis, Ind.) according to the manufacturer's specifications. […]\nas §3"}, "TLR6 [3]": {"biological_target": "T3, TLR6 (Mus musculus, UniProt Q9EPW9)", "T3 construct": "expressed in transfected cells; host or cells: RAW 264.7 (pIRES vector)", "T3 sequence (Q9EPW9 28-795)": "as the sequence (Q9EPW9 28-795 P680H) above, with H653P counted along it", "T3 sequence (Q9QUN7 25-784 partner)": "as the sequence (Q9QUN7 25-784 partner) above", "experiment": "IRM-stimulated TNF-α production by RAW 264.7 cells overexpressing TLR6", "assay_type": "cell-based, murine", "excerpt": "The murine TLR wild-type vectors were generated by PCR amplification from RAW 264.7 cell cDNA with TLR6 specific primers (sense primer: SEQ ID NO 13; antisense primer: SEQ ID NO 14) or TLR7 specific primers (sense primer: SEQ ID NO 15; antisense primer: SEQ ID NO 16) by Pfu Turbo DNA polymerase kit (Stratagene, La Jolla, Calif.). The PCR products were inserted into pCR-Blunt II-TOPO for sequence verification and then subcloned into pIRES (BD Biosciences Clontech, Palo Alto, Calif.) for expression in mammalian cells.\nTHP-1 cells or RAW 264.7 cells were cultured and transfected with the wild type TLR 6 or wild type TLR 7 plasmids described above. The transfections were performed as in Example 1 with a 4:1 ratio of wild-type TLR to H2K plasmid (THP-1 cells) or CD4 (RAW 264.7 cells).\nRAW 264.7 cells were stimulated with various concentrations of resiquimod and analyzed as described in Example 1. Results are provided in Table 4 and are expressed as fold increase in TNF-α production as compared to control transfected RAW 264.7 cells."}, "[4]": {"details": "stimulus 3 μM, 18 hours, relative to vector control"}},
  "data": [
    {"smiles": "CCOCc1nc2c(N)nc3ccccc3c2n1CC(C)(C)O", "note": "[Resiquimod, 4-amino-2-ethoxymethyl-α,α-dimethyl-1H-imidazo[4,5-c]quinoline-1-ethanol]", "values": [
      {"measurement": "Effect of TLR6DN on stimulus-induced TNF-α production (in words)", "setting": "TLR6 [1]; compared to control vector", "result": "inhibited"},
      {"measurement": "TLR6DN % inhibition of TNF-α production", "setting": "TLR6 [1]; [4]", "result": 70.1, "unit": "%"},
      {"measurement": "Effect of TLR7DN on stimulus-induced TNF-α production (in words)", "setting": "TLR7; compared to control vector", "result": "inhibited"},
      {"measurement": "TLR7DN % inhibition of TNF-α production", "setting": "TLR7; [4]", "result": 55.3, "unit": "%"},
      {"measurement": "Effect of TLR6DN on stimulus-induced TNF-α production (in words)", "setting": "TLR6 [2]; compared with stimulation by LPS", "result": "inhibited to a much greater extent"},
      {"measurement": "% inhibition of TNF-α production (TLR6DN)", "setting": "TLR6 [2]; stimulus 3 μM", "result": 70.9, "unit": "%"},
      {"measurement": "Fold increase in TNF-α production over control, TLR6", "setting": "TLR6 [3]; RAW 264.7 overexpressing TLR6, 0.0004 μM", "result": 9.6, "unit": "fold"},
      {"measurement": "Fold increase in TNF-α production over control, TLR6", "setting": "TLR6 [3]; RAW 264.7 overexpressing TLR6, 0.001 μM", "result": 8.0, "unit": "fold"},
      {"measurement": "Fold increase in TNF-α production over control, TLR6", "setting": "TLR6 [3]; RAW 264.7 overexpressing TLR6, 0.004 μM", "result": 9.2, "unit": "fold"},
      {"measurement": "Fold increase in TNF-α production over control, TLR6", "setting": "TLR6 [3]; RAW 264.7 overexpressing TLR6, 0.012 μM", "result": 3.5, "unit": "fold"},
      {"measurement": "Fold increase in TNF-α production over control, TLR6", "setting": "TLR6 [3]; RAW 264.7 overexpressing TLR6, 0.037 μM", "result": 3.9, "unit": "fold"},
      {"measurement": "Fold increase in TNF-α production over control, TLR6", "setting": "TLR6 [3]; RAW 264.7 overexpressing TLR6, 1 μM", "result": 1.4, "unit": "fold"},
      {"measurement": "Fold increase in TNF-α production over control, TLR6", "setting": "TLR6 [3]; RAW 264.7 overexpressing TLR6, 3 μM", "result": 1.7, "unit": "fold"},
      {"measurement": "Fold increase in TNF-α production over control, TLR6", "setting": "TLR6 [3]; RAW 264.7 overexpressing TLR6, 10 μM", "result": 1.8, "unit": "fold"},
      {"measurement": "TLR6 agonist character (in words)", "setting": "TLR6 [3]; from TLR6 overexpression in RAW 264.7 cells", "result": "agonist"}
    ]}
  ]
}
